The values below come from US9408850B2, “Substituted indazole derivatives active as kinase inhibitors” (NERVIANO MEDICAL SCIENCES S.R.L., priority 2011, dated 2016).

In experiment [1] the target is FLT3 cytoplasmic domain (GST fused protein) (Homo sapiens (Human), UniProt P36888). Kind of experiment: Biochemical assay for inhibitors of FLT3 kinase activity. Conditions: 2 nM pre activated enzyme, 254 microM ATP, 60 minutes at r.t. As to the method: FLT3 cytoplasmic domain (aa 564-993end of the 993 aminoacid long full length sequence, accession number P36888 of UniProtKB/Swiss-Prot. database) was amplified by PCR starting from a testis cDNA library and then cloned into pVL vector for expression in insect cells through the baculovirus system. The GST-FLT3 cytoplasmic domain has been expressed in Sf21 cells infected for 72 hours at 27° C. The recombinant protein has been purified by affinity on GSH-sepharose and eluted with glutathione. A further purification step has been performed on heparine sepharose. […] General Principle-A specific peptidic substrate was trans-phosphorylated by the kinase in the presence of ATP traced with 33Pγ-ATP. At the end of the phosphorylation reaction, the not reacted ATP, cold and radioactive, was captured by an excess of dowex ion exchange resin that eventually settled by gravity to the bottom of the reaction plate. The supernatant was subsequently withdrawn and transferred into a counting plate that was then evaluated by β-counting. • ii. Dowex resin preparation-500 g of wet resin (SIGMA, custom prepared resin DOWEX 1×8 200-400 mesh, 2.5 Kg) were weighed out and diluted to 2 L in 150 mM sodium formate, pH 3.00. The resin was allowed to settle down overnight and then the supernatant was discarded. After three washes as above over a couple of days, the resin was allowed to settle and two volumes (with respect to the resin volume) were added of 150 mM sodium formate buffer. Biochemical Assay for Inhibitors of FLT3 Kinase Activity • i. Enzyme-The assay was performed using FLT3 cytoplasmic domain product and purified in house as GST fused protein. […] NO: 1). The peptide was purchased from American Peptide Company (Sunnyvale, Calif.). Biochemical Assay for Inhibitors of KIT Kinase Activity • i. Enzyme-The assay has been performed using KIT cytoplasmic domain product and purified in house as GST fused protein. […] NO: 2). The peptide was purchased from American Peptide Company (Sunnyvale, Calif.). Compound Testing • i. […] An automated station for serial dilutions (Biomek FX, Beckman) was used for producing 1:3 dilutions in 100% DMSO, from line A1 to A10, and for all the compounds in the column. […] The following dispensation into the plates plus 3 cycles of mixing, done by the robot itself, started the kinase reaction. At this point, the correct concentrations were restored for all the reagents. The robot incubated the plates for 60 minutes at r.t., and then stopped the reaction by pipetting 60 microL of dowex resin suspension into the reaction mix. In order to avoid tip clogging, wide bore tips were used to dispense the resin suspension. Three cycles of mixing were done immediately after the addition of the resin. Another mixing cycle was performed after all the plates were stopped, this time using normal tips: the plates were then allowed to rest for about one hour in order to allow resin sedimentation. […] Data Fitting-Data were analyzed by an internally customized version of the SW package “Assay Explorer” that provided sigmoidal fitting of the ten-dilutions curves for IC50 determination in the secondary assays/hit confirmation routines. Cell-Based Assays for Inhibitors of FLT3 Kinase Activity In vitro Cell Proliferation Assay for Inhibitors of FLT3 Kinase Activity
Chain of FLT3 cytoplasmic domain (GST fused protein) (P36888 564-993): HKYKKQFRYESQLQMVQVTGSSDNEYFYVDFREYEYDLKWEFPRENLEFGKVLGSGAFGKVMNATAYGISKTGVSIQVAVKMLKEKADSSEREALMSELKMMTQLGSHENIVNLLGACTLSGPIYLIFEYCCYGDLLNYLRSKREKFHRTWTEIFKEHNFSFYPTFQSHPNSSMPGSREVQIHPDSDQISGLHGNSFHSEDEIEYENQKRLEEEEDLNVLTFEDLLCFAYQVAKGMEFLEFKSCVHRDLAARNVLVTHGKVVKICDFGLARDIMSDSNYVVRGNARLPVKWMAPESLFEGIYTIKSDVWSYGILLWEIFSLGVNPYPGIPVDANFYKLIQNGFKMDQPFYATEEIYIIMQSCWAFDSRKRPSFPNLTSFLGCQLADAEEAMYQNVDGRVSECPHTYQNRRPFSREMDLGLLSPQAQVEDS

The target of experiment [2] is KIT cytoplasmic domain (GST fused protein) (Homo sapiens (Human), UniProt P10721). As to the kind of experiment: Biochemical assay for inhibitors of KIT kinase activity. Conditions: 4 nM pre activated enzyme, 4.4 microM ATP, 60 minutes at r.t. As to the method: KIT cytoplasmic domain (aa 544-976end of the 976 aminoacid long full length sequence, accession number P10721 of UniProtKB/Swiss-Prot database) was cloned into pVL vector for expression in insect cells through the baculovirus system. The GST-KIT cytoplasmic domain has been expressed in Sf21 cells infected for 66 hrs at 27° C. The recombinant protein has been purified by affinity on GSH-sepharose and eluted with glutathione. […] General Principle-A specific peptidic substrate was trans-phosphorylated by the kinase in the presence of ATP traced with 33Pγ-ATP. At the end of the phosphorylation reaction, the not reacted ATP, cold and radioactive, was captured by an excess of dowex ion exchange resin that eventually settled by gravity to the bottom of the reaction plate. The supernatant was subsequently withdrawn and transferred into a counting plate that was then evaluated by β-counting. • ii. Dowex resin preparation-500 g of wet resin (SIGMA, custom prepared resin DOWEX 1×8 200-400 mesh, 2.5 Kg) were weighed out and diluted to 2 L in 150 mM sodium formate, pH 3.00. The resin was allowed to settle down overnight and then the supernatant was discarded. After three washes as above over a couple of days, the resin was allowed to settle and two volumes (with respect to the resin volume) were added of 150 mM sodium formate buffer. Biochemical Assay for Inhibitors of FLT3 Kinase Activity • i. Enzyme-The assay was performed using FLT3 cytoplasmic domain product and purified in house as GST fused protein. […] The peptide was purchased from American Peptide Company (Sunnyvale, Calif.). Biochemical Assay for Inhibitors of KIT Kinase Activity • i. Enzyme-The assay has been performed using KIT cytoplasmic domain product and purified in house as GST fused protein. […] NO: 2). The peptide was purchased from American Peptide Company (Sunnyvale, Calif.). Compound Testing • i. […] An automated station for serial dilutions (Biomek FX, Beckman) was used for producing 1:3 dilutions in 100% DMSO, from line A1 to A10, and for all the compounds in the column. […] The following dispensation into the plates plus 3 cycles of mixing, done by the robot itself, started the kinase reaction. At this point, the correct concentrations were restored for all the reagents. The robot incubated the plates for 60 minutes at r.t., and then stopped the reaction by pipetting 60 microL of dowex resin suspension into the reaction mix. In order to avoid tip clogging, wide bore tips were used to dispense the resin suspension. Three cycles of mixing were done immediately after the addition of the resin. Another mixing cycle was performed after all the plates were stopped, this time using normal tips: the plates were then allowed to rest for about one hour in order to allow resin sedimentation. […] Data Fitting-Data were analyzed by an internally customized version of the SW package “Assay Explorer” that provided sigmoidal fitting of the ten-dilutions curves for IC50 determination in the secondary assays/hit confirmation routines. Cell-Based Assays for Inhibitors of FLT3 Kinase Activity In vitro Cell Proliferation Assay for Inhibitors of FLT3 Kinase Activity
Chain of KIT cytoplasmic domain (GST fused protein) (P10721 544-976): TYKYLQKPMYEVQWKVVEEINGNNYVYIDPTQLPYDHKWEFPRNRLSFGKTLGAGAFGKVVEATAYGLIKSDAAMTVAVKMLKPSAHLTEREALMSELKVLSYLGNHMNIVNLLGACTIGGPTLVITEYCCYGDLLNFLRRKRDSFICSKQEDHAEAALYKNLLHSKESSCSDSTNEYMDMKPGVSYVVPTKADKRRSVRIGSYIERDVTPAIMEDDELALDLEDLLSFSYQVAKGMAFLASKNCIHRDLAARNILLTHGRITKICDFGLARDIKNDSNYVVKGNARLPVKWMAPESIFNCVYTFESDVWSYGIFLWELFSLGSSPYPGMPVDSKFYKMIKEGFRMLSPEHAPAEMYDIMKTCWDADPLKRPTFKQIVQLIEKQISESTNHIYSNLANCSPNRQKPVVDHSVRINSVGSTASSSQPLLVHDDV

Counter-ions that a name gives are not always drawn. Where only a bound is given, the exact number is not on record here.

The IC50 is the concentration that gives 50% inhibition. For `O=C(Nc1n[nH]c2cc(OCCOCc3ccccc3)ccc12)c1ccc(N2CC(N3CCCC3)C2)cc1` [Cpd. 28, N-[6-(2-Benzyloxy-ethoxy)-1H-indazol-3-yl]-4-(3-pyrrolidin-1-yl-azetidin-1-yl)-benzamide], the IC50 came to 136 nM in experiment [1] and 306 nM in experiment [2].

Consider `CN(C)CCCN(C)c1ccc(C(=O)Nc2n[nH]c3cc(OCCOCc4ccccc4)ccc23)cc1` [Cpd. 17, N-[6-(2-Benzyloxy-ethoxy)-1H-indazol-3-yl]-4-[(3-dimethylamino-propyl)-methyl-amino]-benzamide], for which the values for the IC50 in experiment [1] and in experiment [2] were 62 nM and 146 nM, respectively.

In the case of `CN1CCC(Oc2ccc(C(=O)Nc3n[nH]c4cc(OCCOCc5ccccc5)ccc34)cc2)CC1` [Cpd. 22, N-[6-(2-Benzyloxy-ethoxy)-1H-indazol-3-yl]-4-(1-methyl-piperidin-4-yloxy)-benzamide], the values for the IC50 in experiment [1] and in experiment [2] were 56 nM and 55 nM, respectively.

Take `CN1CCN(c2ccc(C(=O)Nc3n[nH]c4cc(OC5CCN(Cc6ccccc6)CC5)ccc34)cc2)CC1` [Cpd. 6, N-[6-(1-Benzyl-piperidin-4-yloxy)-1H-indazol-3-yl]-4-(4-methyl-piperazin-1-yl)-benzamide]: the figures for the IC50 in experiment [1] and in experiment [2] were 248 nM and 6890 nM, respectively.

`CN1CCN(c2ccc(C(=O)Nc3n[nH]c4cc(Oc5cccc(F)c5)ccc34)cc2)CC1` [Cpd. 3, N-[6-(3-Fluoro-phenoxy)-1H-indazol-3-yl]-4-(4-methyl-piperazin-1-yl)-benzamide]: the results for the IC50 in experiment [1] and in experiment [2] were 639 nM and 564 nM, respectively.

As to `CC(C)(C)OC(=O)N1CCN(c2ccc(C(=O)Nc3n[nH]c4cc(OCCOCc5ccccc5)ccc34)cc2)CC1` [Cpd. 18, 4-{4-[6-(2-Benzyloxy-ethoxy)-1H-indazol-3-ylcarbamoyl]-phenyl}-piperazine-1-carboxylic acid tert-butyl ester], the IC50 in experiment [1] was 414 nM; in experiment [2], 1390 nM.

With `CN1CCN(c2ccc(C(=O)Nc3n[nH]c4cc(OCCOCc5cccc(C(F)(F)F)c5)ccc34)cc2)CC1` [Cpd. 34, 4-(4-Methyl-piperazin-1-yl)-N-{6-[2-(3-trifluoromethyl-benzyloxy)-ethoxy]-1H-indazol-3-yl}-benzamide], the IC50 came out at 56 nM in experiment [1] and 58 nM in experiment [2].

With `CN1CCN(c2ccc(C(=O)Nc3n[nH]c4cc(Oc5cccc(OCc6ccccc6)c5)ccc34)cc2)CC1` [Cpd. 9, N-[6-(3-Benzyloxy-phenoxy)-1H-indazol-3-yl]-4-(4-methyl-piperazin-1-yl)-benzamide], the values for the IC50 in experiment [1] and in experiment [2] were 1500 nM and 713 nM, respectively.

`O=C(Nc1n[nH]c2cc(OCCOCc3ccccc3)ccc12)c1ccc(NCCN2CCOCC2)cc1` [Cpd. 25, N-[6-(2-Benzyloxy-ethoxy)-1H-indazol-3-yl]-4-(2-morpholin-4-yl-ethylamino)-benzamide hydrochloride]: the IC50 amounted to 74 nM in experiment [1] and 197 nM in experiment [2].

For `CN1CCN(c2cccc(C(=O)Nc3n[nH]c4cc(OCCOCc5ccccc5)ccc34)c2)CC1` [Cpd. 29, N-[6-(2-Benzyloxy-ethoxy)-1H-indazol-3-yl]-3-(4-methyl-piperazin-1-yl)-benzamide hydrochloride], the half-maximal inhibitory concentration (IC50) was 635 nM in experiment [1] and 1080 nM in experiment [2].

In the case of `CN1CCN(c2ccc(C(=O)Nc3n[nH]c4cc(OCc5cccc(Oc6ccccc6)c5)ccc34)cc2)CC1` [Cpd. 5, 4-(4-Methyl-piperazin-1-yl)-N-[6-(3-phenoxy-benzyloxy)-1H-indazol-3-yl]-benzamide], the IC50 in experiment [1] worked out at 1170 nM; in experiment [2], 2620 nM.

For `CN1CCC(Nc2ccc(C(=O)Nc3n[nH]c4cc(OCCOCc5ccccc5)ccc34)cc2)CC1` [Cpd. 19, N-[6-(2-Benzyloxy-ethoxy)-1H-indazol-3-yl]-4-(1-methyl-piperidin-4-ylamino)-benzamide], the IC50 in experiment [1] is below 50 nM; in experiment [2] it was 61 nM.

Regarding `CN(C)CCN(C)c1ccc(C(=O)Nc2n[nH]c3cc(OCCOCc4ccccc4)ccc23)cc1` [Cpd. 16, N-[6-(2-Benzyloxy-ethoxy)-1H-indazol-3-yl]-4-[(2-dimethylamino-ethyl)-methyl-amino]-benzamide], the IC50 is below 50 nM in experiment [1] and 106 nM in experiment [2].

On to `CN1CCN(c2ccc(C(=O)Nc3n[nH]c4cc(OCC#Cc5ccccc5)ccc34)cc2)CC1` [Cpd. 7, 4-(4-Methyl-piperazin-1-yl)-N-[6-(3-phenyl-prop-2-ynyloxy)-1H-indazol-3-yl]-benzamide], for which the IC50 in experiment [1] stood at 249 nM; in experiment [2], 1500 nM.

As for `CN(C)c1ccc(C(=O)Nc2n[nH]c3cc(OCc4ccccc4)ccc23)cc1` [Ref. Compound, reference compound], the IC50 in experiment [1] is 3180 nM; in experiment [2], above 10000 nM.

Regarding `CN1CCN(c2ccc(C(=O)Nc3n[nH]c4cc(OCCOCc5ccccc5)ccc34)c(F)c2)CC1` [Cpd. 38, N-[6-(2-Benzyloxy-ethoxy)-1H-indazol-3-yl]-2-fluoro-4-(4-methyl-piperazin-1-yl)-benzamide], the IC50 was determined as 539 nM in experiment [1] and 613 nM in experiment [2].

For the compound `CN1CCC(CNc2ccc(C(=O)Nc3n[nH]c4cc(OCCOCc5ccccc5)ccc34)cc2)CC1` [Cpd. 27, N-[6-(2-Benzyloxy-ethoxy)-1H-indazol-3-yl]-4-[(1-methyl-piperidin-4-ylmethyl)-amino]-benzamide], the concentration for half-maximal inhibition (IC50) in experiment [1] was below 50 nM; in experiment [2] it was 91 nM.

Consider `CN1CCN(c2ccc(C(=O)Nc3n[nH]c4cc(OCCOc5ccccc5)ccc34)cc2)CC1` [Cpd. 10, 4-(4-Methyl-piperazin-1-yl)-N-[6-(2-phenoxy-ethoxy)-1H-indazol-3-yl]-benzamide], for which the IC50 is below 50 nM in experiment [1] and 956 nM in experiment [2].

As for `CN(C)C1CCN(c2ccc(C(=O)Nc3n[nH]c4cc(OCCOCc5ccccc5)ccc34)cc2)CC1` [Cpd. 15, N-[6-(2-Benzyloxy-ethoxy)-1H-indazol-3-yl]-4-(4-dimethylamino-piperidin-1-yl)-benzamide], the IC50 was below 50 nM in experiment [1] and 76 nM in experiment [2].
